In ChEMBL document CHEMBL4507276 (2021):

Assays:
[1] = target: T1, Serine/threonine-protein kinase haspin (Homo sapiens) (UniProt Q8TF76); settings: Compound concentration 1000.0 nM
T1 sequence (whole entry): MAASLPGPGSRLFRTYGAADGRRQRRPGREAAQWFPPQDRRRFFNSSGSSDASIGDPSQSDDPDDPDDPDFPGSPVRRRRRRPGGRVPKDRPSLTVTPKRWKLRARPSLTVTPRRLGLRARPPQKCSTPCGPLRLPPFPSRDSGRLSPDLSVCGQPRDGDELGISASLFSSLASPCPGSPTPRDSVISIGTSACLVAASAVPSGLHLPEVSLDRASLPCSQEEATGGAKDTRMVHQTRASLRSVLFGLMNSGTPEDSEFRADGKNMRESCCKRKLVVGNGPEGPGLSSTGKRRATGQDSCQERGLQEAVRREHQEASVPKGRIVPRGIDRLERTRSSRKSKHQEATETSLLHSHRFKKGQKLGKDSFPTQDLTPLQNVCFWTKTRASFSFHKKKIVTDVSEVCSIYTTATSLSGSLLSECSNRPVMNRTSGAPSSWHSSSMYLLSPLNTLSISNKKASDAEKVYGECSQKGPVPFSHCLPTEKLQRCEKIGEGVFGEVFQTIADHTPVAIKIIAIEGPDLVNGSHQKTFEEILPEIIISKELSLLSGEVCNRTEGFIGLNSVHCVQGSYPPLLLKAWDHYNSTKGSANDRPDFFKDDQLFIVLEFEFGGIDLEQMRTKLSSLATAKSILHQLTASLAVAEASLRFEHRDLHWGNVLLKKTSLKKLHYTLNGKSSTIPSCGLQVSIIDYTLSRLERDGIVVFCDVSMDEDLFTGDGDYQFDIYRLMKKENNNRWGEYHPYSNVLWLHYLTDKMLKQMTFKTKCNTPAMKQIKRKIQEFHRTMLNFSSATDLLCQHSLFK

[2] = target: Calcium/calmodulin-dependent protein kinase kinase 2 (Homo sapiens) (UniProt Q96RR4); settings: Compound concentration 1000.0 nM
[3] = target: Mitogen-activated protein kinase 3 (Homo sapiens) (UniProt P27361); settings: Compound concentration 1000.0 nM
[4] = target: Calcium/calmodulin-dependent protein kinase type II subunit delta (Homo sapiens) (UniProt Q13557); settings: Compound concentration 1000.0 nM
[5] = tested on: Receptor-type tyrosine-protein kinase FLT3 (Homo sapiens), P36888 [UNDEFINED MUTATION]; settings: Compound concentration 1000.0 nM
[6] = target: Calcium/calmodulin-dependent protein kinase type 1D (Homo sapiens) (UniProt Q8IU85); settings: Compound concentration 1000.0 nM
[7] = tested on: Proto-oncogene tyrosine-protein kinase receptor Ret (Homo sapiens), P07949 [V804L]; settings: Compound concentration 1000.0 nM
[8] = target: Dual specificity mitogen-activated protein kinase kinase 7 (Homo sapiens) (UniProt O14733); settings: Compound concentration 1000.0 nM
[9] = tested on: Phosphatidylinositol 4,5-bisphosphate 3-kinase catalytic subunit alpha isoform (Homo sapiens), P42336 [H1047L]; settings: Compound concentration 1000.0 nM
[10] = target: Serine/threonine-protein kinase RIO1 (Homo sapiens) (UniProt Q9BRS2); settings: Compound concentration 1000.0 nM
[11] = target: Dual specificity mitogen-activated protein kinase kinase 1 (Homo sapiens) (UniProt Q02750); settings: Compound concentration 1000.0 nM
[12] = target: Dual specificity protein kinase CLK4 (Homo sapiens) (UniProt Q9HAZ1); settings: Compound concentration 1000.0 nM
[13] = target: Tyrosine-protein kinase ABL2 (Homo sapiens) (UniProt P42684); settings: Compound concentration 1000.0 nM
[14] = target: Insulin receptor-related protein (Homo sapiens) (UniProt P14616); settings: Compound concentration 1000.0 nM
[15] = target: Casein kinase II subunit alpha (Homo sapiens) (UniProt P68400); settings: Compound concentration 1000.0 nM
[16] = tested on: Epidermal growth factor receptor (Homo sapiens), P00533 [UNDEFINED MUTATION]; settings: Compound concentration 1000.0 nM
[17] = target: Epidermal growth factor receptor (Homo sapiens) (UniProt P00533); settings: Compound concentration 1000.0 nM
[18] = target: T2, Alpha-1A adrenergic receptor (Homo sapiens) (UniProt P35348); settings: Compound concentration 10.0 uM
T2 sequence (whole entry): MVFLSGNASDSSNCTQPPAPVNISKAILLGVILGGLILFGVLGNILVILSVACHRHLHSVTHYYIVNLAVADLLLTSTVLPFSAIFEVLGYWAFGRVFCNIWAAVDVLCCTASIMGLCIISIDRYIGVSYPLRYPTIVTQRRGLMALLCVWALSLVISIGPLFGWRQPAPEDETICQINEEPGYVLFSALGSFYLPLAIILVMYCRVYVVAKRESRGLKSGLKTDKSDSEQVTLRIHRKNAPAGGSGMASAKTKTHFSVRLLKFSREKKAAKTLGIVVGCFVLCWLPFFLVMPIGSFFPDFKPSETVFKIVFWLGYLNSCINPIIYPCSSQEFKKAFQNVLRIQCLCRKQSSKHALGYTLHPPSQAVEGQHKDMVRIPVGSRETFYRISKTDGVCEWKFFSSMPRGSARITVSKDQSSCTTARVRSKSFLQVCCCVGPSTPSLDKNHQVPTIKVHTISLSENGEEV

[19] = target: LIM domain kinase 1 (Homo sapiens) (UniProt P53667); settings: Compound concentration 1000.0 nM
[20] = target: RAC-alpha serine/threonine-protein kinase (Homo sapiens) (UniProt P31749); settings: Compound concentration 1000.0 nM
[21] = target: Dual specificity mitogen-activated protein kinase kinase 4 (Homo sapiens) (UniProt P45985); settings: Compound concentration 1000.0 nM

Sequence of Calcium/calmodulin-dependent protein kinase type 1D (Homo sapiens) (Q8IU85 whole entry, looked up): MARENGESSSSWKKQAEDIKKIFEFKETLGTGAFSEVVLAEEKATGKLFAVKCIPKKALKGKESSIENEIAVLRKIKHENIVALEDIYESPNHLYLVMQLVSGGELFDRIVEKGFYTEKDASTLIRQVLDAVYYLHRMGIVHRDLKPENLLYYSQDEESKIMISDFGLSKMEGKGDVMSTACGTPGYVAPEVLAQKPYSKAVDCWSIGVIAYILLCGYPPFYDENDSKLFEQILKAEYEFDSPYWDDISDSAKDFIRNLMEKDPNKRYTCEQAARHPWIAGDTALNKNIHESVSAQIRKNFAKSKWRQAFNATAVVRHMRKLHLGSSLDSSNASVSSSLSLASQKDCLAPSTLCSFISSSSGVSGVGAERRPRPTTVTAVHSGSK
Sequence of Serine/threonine-protein kinase RIO1 (Homo sapiens) (Q9BRS2 whole entry): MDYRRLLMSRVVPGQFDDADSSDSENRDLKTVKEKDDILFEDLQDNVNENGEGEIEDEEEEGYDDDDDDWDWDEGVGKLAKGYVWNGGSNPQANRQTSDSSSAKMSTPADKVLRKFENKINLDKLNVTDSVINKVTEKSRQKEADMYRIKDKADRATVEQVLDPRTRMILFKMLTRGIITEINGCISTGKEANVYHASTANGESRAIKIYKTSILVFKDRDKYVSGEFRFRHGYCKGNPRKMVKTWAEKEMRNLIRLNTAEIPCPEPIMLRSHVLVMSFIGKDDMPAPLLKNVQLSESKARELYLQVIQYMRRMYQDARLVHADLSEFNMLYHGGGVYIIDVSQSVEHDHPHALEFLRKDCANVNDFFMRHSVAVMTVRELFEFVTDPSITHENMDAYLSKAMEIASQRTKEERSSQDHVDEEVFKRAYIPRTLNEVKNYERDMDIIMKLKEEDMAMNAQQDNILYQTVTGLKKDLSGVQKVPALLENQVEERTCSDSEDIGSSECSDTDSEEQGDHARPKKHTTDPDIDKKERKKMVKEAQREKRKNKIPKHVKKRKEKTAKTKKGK
Sequence of Tyrosine-protein kinase ABL2 (Homo sapiens) (P42684 whole entry): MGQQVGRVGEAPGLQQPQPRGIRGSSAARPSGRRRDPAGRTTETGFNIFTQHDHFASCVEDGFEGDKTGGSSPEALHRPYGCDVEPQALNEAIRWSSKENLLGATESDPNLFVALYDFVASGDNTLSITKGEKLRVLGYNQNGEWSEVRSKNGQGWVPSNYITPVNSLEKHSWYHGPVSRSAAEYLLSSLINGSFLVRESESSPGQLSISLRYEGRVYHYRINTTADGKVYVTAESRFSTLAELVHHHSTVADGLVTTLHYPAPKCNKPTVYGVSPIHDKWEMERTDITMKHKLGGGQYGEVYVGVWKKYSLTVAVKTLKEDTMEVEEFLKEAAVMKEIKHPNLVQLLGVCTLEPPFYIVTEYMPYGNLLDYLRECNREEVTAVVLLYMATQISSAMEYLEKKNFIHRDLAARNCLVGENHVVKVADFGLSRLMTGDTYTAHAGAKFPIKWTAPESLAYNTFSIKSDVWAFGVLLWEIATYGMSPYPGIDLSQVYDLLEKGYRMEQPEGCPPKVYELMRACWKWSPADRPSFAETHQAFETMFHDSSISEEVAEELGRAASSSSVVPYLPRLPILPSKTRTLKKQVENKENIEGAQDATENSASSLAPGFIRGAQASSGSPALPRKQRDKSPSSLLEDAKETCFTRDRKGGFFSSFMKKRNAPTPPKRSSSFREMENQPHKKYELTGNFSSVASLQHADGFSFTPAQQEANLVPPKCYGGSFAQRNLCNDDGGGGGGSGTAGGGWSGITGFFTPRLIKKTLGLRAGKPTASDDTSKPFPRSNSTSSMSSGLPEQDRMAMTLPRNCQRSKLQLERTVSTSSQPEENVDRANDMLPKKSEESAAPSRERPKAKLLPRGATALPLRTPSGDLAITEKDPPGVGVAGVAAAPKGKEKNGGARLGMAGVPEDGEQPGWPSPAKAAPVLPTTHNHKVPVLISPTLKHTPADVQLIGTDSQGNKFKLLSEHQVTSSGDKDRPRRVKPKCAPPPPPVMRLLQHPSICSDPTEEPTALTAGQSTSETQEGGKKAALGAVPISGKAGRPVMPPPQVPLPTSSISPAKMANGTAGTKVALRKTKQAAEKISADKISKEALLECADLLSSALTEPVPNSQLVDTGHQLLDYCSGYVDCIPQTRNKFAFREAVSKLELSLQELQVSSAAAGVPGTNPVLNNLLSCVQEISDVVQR
Sequence of Dual specificity protein kinase CLK4 (Homo sapiens) (Q9HAZ1 whole entry, looked up): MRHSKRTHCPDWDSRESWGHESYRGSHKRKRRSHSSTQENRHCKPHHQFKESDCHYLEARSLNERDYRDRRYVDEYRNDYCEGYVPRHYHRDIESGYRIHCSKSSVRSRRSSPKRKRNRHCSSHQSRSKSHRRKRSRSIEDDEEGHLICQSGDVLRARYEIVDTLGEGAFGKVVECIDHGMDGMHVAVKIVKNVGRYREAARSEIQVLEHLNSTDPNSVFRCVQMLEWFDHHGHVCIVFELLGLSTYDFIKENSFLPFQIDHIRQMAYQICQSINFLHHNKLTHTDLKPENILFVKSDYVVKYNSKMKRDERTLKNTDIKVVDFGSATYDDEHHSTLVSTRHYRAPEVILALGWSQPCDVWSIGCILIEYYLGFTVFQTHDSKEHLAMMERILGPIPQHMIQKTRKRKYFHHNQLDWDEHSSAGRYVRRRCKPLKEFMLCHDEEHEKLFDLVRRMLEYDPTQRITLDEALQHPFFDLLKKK
Sequence of Calcium/calmodulin-dependent protein kinase type II subunit delta (Homo sapiens) (Q13557 whole entry): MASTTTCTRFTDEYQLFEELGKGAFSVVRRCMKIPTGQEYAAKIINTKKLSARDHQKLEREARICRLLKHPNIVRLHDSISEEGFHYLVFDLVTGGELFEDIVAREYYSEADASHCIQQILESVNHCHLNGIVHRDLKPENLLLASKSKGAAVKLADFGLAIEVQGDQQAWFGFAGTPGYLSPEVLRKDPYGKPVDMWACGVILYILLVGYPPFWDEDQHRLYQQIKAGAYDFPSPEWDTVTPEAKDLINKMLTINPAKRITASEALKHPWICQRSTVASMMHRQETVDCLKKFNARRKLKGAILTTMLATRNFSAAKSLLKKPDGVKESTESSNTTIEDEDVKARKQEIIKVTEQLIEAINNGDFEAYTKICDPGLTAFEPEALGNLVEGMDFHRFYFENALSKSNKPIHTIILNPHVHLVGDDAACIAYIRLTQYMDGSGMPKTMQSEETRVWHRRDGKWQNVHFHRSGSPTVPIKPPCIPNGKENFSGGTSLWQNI
Sequence of Proto-oncogene tyrosine-protein kinase receptor Ret (Homo sapiens), P07949 [V804L] (P07949 whole entry V804L): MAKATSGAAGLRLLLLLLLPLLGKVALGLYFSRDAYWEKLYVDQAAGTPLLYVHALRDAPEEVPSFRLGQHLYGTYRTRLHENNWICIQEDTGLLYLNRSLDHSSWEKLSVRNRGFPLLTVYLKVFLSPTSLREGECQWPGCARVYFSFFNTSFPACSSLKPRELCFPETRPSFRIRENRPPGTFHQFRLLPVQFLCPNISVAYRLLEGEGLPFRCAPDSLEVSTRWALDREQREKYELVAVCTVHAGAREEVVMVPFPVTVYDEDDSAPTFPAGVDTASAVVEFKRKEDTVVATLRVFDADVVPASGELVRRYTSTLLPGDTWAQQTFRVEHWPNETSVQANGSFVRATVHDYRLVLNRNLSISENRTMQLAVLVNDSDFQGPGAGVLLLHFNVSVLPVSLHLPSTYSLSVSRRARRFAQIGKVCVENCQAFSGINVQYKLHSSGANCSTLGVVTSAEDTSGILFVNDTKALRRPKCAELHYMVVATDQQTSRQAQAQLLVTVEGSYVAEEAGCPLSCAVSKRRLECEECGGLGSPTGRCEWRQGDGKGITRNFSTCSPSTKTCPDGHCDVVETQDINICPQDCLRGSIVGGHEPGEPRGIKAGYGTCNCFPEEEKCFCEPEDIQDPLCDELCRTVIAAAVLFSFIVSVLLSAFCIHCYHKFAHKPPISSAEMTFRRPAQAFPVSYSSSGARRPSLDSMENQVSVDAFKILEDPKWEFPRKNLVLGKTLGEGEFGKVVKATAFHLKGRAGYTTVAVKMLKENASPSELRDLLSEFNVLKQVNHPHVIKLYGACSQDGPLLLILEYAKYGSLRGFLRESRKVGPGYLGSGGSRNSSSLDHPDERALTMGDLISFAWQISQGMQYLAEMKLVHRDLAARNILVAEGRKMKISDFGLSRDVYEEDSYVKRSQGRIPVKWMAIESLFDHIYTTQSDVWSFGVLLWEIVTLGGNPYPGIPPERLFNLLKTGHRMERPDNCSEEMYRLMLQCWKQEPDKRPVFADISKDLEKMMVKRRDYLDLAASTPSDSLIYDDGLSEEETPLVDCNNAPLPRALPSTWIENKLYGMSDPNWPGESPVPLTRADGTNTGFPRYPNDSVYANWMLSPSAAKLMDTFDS
Sequence of Casein kinase II subunit alpha (Homo sapiens) (P68400 whole entry, looked up): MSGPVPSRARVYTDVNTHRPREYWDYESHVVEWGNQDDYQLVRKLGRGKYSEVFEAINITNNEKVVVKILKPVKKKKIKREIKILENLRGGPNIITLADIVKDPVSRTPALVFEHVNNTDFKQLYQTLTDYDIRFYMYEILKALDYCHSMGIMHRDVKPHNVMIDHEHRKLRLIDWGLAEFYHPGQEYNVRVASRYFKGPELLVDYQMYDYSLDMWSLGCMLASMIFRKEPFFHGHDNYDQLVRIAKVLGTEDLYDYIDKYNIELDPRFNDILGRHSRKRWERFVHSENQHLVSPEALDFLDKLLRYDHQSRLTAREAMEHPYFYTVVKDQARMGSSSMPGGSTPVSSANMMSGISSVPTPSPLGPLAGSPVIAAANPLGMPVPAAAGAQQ
Sequence of Dual specificity mitogen-activated protein kinase kinase 1 (Homo sapiens) (Q02750 whole entry): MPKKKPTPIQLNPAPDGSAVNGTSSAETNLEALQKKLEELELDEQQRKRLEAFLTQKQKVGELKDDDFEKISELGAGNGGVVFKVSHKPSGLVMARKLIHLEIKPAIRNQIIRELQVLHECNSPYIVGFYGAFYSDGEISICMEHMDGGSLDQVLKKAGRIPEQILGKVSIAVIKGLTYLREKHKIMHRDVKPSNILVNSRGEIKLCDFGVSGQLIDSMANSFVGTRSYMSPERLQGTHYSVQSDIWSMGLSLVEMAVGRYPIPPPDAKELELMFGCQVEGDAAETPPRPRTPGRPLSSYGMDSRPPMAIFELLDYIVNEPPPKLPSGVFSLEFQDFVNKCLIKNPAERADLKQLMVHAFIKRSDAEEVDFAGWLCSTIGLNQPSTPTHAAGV

CN(C)C(=O)Cn1cc(-c2nc(C3(c4ccc(-c5cnc(N)nc5)cc4)CC3)no2)cn1 [BI 0153]
inactive: residual activity [1] 74% | residual activity [2] 100% | residual activity [3] 79% | residual activity [4] 99% | residual activity [5] 100% | residual activity [6] 100% | residual activity [7] 100% | residual activity [8] 87% | residual activity [9] 73% | residual activity [10] 100% | residual activity [11] 82% | residual activity [12] 89% | residual activity [13] 84% | residual activity [14] 100% | residual activity [15] 73% | residual activity [16] 79% | residual activity [17] 93% | inhibition [18] 13.9% | residual activity [19] 100% | residual activity [20] 97% | residual activity [21] 93%

CN(C)C(=O)Cn1cc(-c2nc([C@@](C)(c3ccc(-c4cnc(N)nc4)cc3)C3CC3)no2)cn1 [BI 665915]
inactive: residual activity [1] 100% | residual activity [2] 100% | residual activity [3] 100% | residual activity [4] 100% | residual activity [5] 100% | residual activity [6] 100% | residual activity [7] 93% | residual activity [8] 94% | residual activity [9] 100% | residual activity [10] 100% | residual activity [11] 89% | residual activity [12] 99% | residual activity [13] 100% | residual activity [14] 99% | residual activity [15] 88% | residual activity [16] 75% | residual activity [17] 93% | inhibition [18] 4.68% | residual activity [19] 81% | residual activity [20] 94% | residual activity [21] 100%
